Laboratory results taken from patent US12503444B2, “Compound containing benzene ring and application thereof” (WUHAN LL SCIENCE AND TECHNOLOGY DEVELOPMENT CO., LTD., priority 2019, dated 2025).
Like-named read-outs stand apart in the source and are kept apart here.

Assays:
[1] = molecular target: T1, hP2X4 (human purinergic P2X receptor subtype 4) (Homo sapiens, UniProt Q99571); assay: FLIPR assay of intracellular calcium increase induced by activation of hP2X4 expressed in HEK293 cells (agonist BZ-ATP 2.5 μM); assay type: cell-based; conditions: HEK293 cells stably expressing hP2X4, FLIPR, read-out: P2X4 IC50
T1 sequence (Q99571 1-404 isoform Q99571-2): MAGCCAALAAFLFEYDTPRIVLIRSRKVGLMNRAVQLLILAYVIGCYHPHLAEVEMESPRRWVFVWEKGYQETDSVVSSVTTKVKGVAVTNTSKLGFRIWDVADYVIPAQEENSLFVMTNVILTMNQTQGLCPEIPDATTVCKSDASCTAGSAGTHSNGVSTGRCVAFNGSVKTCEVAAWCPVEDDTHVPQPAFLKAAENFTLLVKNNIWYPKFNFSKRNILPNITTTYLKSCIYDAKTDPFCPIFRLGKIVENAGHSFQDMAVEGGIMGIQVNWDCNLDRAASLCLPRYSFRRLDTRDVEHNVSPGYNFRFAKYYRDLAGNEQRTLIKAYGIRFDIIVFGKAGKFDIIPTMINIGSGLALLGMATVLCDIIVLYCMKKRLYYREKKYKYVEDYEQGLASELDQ
How it was run: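 Inhibition of the calcium signal was measured by FLIPR after a 2.5 μM final BZ-ATP challenge, with readings every second over 2 min. Stable hP2X4-HEK293 cells were dye-loaded (Calcium 6, 37° C, 1.5 h) and equilibrated with test compound for 30 min at room temperature beforehand.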

[2] = In vitro metabolic stability, liver microsome incubation (human); assay type: in vitro ADME; conditions: human, liver microsomes, 1 mg/mL liver microsome protein, 37° C., read-out: T1/2 in human liver microsome min
Experimental: (§1) The in vitro metabolic stability of the compounds disclosed herein was determined through incubation of liver microsomes of various species. A proper amount of test compound was added into a liver microsome reaction system (1 mg/mL liver microsome protein, 25 U/mL glucose-6 phosphate dehydrogenase, 1 mM NADP, 6 mM D-glucose 6-phosphate and 5 mM MgCl2), and then the mixture was incubated in a water bath kettle at 37° C. to start the reaction. At each time point, 100 μL of the reaction system was added into a centrifuge tube containing 400 μL of internal standard working solution (containing a 200 ng/mL solution of dexamethasone, diclofenac, tolbutamide and labetalol in acetonitrile) precooled at 0° C. so as to stop the reaction, and the mixture was then centrifuged at 10,000 g for 10 min at 4° C. The supernatant was collected for LC-MS assay so as to obtain the values of in vitro metabolic half-life of the test compounds in liver microsomes of various species.

[3] = In vitro metabolic stability, liver microsome incubation (rat); assay type: in vitro ADME; conditions: rat, 1 mg/mL liver microsome protein, 37° C., read-out: T1/2 in rat liver microsome min
Experimental: as §1

[4] = In vitro metabolic stability, liver microsome incubation (guinea pig); assay type: in vitro ADME; conditions: guinea pig, liver microsomes; 1 mg/mL liver microsome protein, 37° C.; read-out: T1/2 in guinea pig liver microsome min
Experimental: as §1

[5] = In vitro cytotoxicity assay in HepG2 cells, CCK-8 method; conditions: human
Experimental: In vitro cytotoxicity assay for the compounds disclosed herein was performed in HepG2 cells using the CCK-8 method. HepG2 cells (Beina Bio) in the logarithmic growth phase were collected, the concentration of cell suspension was adjusted, and then the cells were plated on a 96-well cell culture plate at 50,000 cells/well. The cells were then incubated overnight in a cell incubator (5%/humidity, 37° C.), and after 80-90% cell confluence was achieved, test compounds or vehicle (DMSO) at various concentration gradients were added after medium change. The resulting mixture was incubated in the cell incubator (5% humidity, 37° C.) for 48 h. After the treatment, the medium in the plate was discarded. The plate was washed twice with PBS, added with CCK-8 working solution (Beyotime) at 100 μL per well, and then incubated at 37° C. for 1.5 h away from the light. Absorbance at OD450 nm was measured for each well on a microplate reader, and CC50 value of each compound was analyzed and calculated.

[6] = tested on: Male Dunkin Hartley guinea pigs; assay: Citric acid only cough model in guinea pigs; assay type: in vivo; conditions: guinea pig, 17.5% citric acid
Experimental: Male Dunkin Hartley guinea pigs (300-350 g) were placed in an animal atomization box, and then the door of the atomization box was closed while the ultrasonic atomizer (Guangdong Yuehua) was turned on. 17.5% citric acid gas was introduced into the atomization box at a maximum atomization rate (about 2 mL/min) for 20 s, and coughs of the animals within 10 min were continuously observed from the time of the start of atomization. During the 10-min observation, coughs of the animals needed to be counted manually, and the number of coughs were judged according to cough postures of the guinea pigs, such as abdominal twitching, mouth opening, and head inclining downward abruptly. The number of coughs during the first 5 min and that during 10 min were recorded, and the cough latency of the guinea pigs, namely the time from the initiation of citric acid induction to the appearance of the 1st cough, was also recorded.
Cough inhibition rate Vs vehicle represents the percentage of reduction
[formula] in the number of coughs in the administration group compared to the vehicle group upon citric acid challenge; Cough inhibition rate Vs baseline represents the percentage of reduction
[formula] in the number of coughs in the administration group before and after administration.

[7] = 60 mg/kg group, before administration (baseline)

Structure (SMILES) | IC50 ([1]; numeric values) [nM] | half-life [2] [h] | half-life ([3]; liver microsomes) [h] | CC50 at 48 h [5] [nM] | IC50 ([1]; class symbols) [nM] | also measured
NS(=O)(=O)c1cc(NC(=O)Cc2ccccc2Cl)cc2n[nH]cc12 [Compound 2, 2-(2-chlorophenyl)-N-(4-sulfamoyl-2H-indazol-6-yl)acetamide] | 5.4 | 2.57 | 0.809 | > 200000 |  | half-life [4]: 3.54 h
CCCn1cc2c(S(N)(=O)=O)cc(NC(=O)Cc3ccccc3Cl)cc2n1 [Compound 5-A, 2-(2-chlorophenyl)-N-(2-propyl-4-sulfonylamino-2H-indazol-6-yl)acetamide] | 5.24 | 5.96 | 2.37 | > 200000 |  | half-life [4]: 0.0978 h
CC(C)CCn1cc2c(S(N)(=O)=O)cc(NC(=O)Cc3ccccc3Cl)cc2n1 [Compound 8-A, 2-(2-chlorophenyl)-N-(2-isopentyl-4-sulfamoyl-2H-indazol-6-yl)acetamide] | 13.9 | 0.584 |  | > 200000 |  | 
NS(=O)(=O)c1cc(NC(=O)Cc2ccccc2Cl)cc2nn(CC(F)F)cc12 [Compound 12-A, 2-(2-chlorophenyl)-N-(2-(2,2-difluoroethyl)-4-sulfamoyl-2H-indazol-6-yl)acetamide] | 31 |  |  | > 200000 |  | half-life ([2]; symbol NA): > 106 h
NS(=O)(=O)c1cc(NC(=O)Cc2ccccc2Cl)cc2c1cnn2CC1CCC1 [Compound 24-B, 2-(2-chlorophenyl)-N-(1-(cyclobutylmethyl)-4-sulfamoyl-1H-indazol-6-yl)acetamide] |  | 1.84 | 0.768 | > 200000 | ≤ 10 | half-life [4]: 2.41 h
CC(C)OCCn1cc2c(S(N)(=O)=O)cc(NC(=O)Cc3ccccc3Cl)cc2n1 [Compound 26-A, 2-(2-chlorophenyl)-N-(2-(2-isopropoxyethyl)-4-sulfamoyl-2H-indazol-6-yl)acetamide] | 6.1 | 2.09 |  | > 200000 |  | 
COc1ccc(Cn2cc3c(S(N)(=O)=O)cc(NC(=O)Cc4ccccc4Cl)cc3n2)cc1 [Compound 35-A, 2-(2-chlorophenyl)-N-(2-(4-methoxybenzyl)-4-sulfamoyl-2H-indazol-6-yl)acetamide] |  | 6.21 |  | > 200000 | 10 to 50 | 
COc1ccc(Cn2ncc3c(S(N)(=O)=O)cc(NC(=O)Cc4ccccc4Cl)cc32)cc1 [Compound 35-B, 2-(2-chlorophenyl)-N-(1-(4-methoxybenzyl)-4-sulfamoyl-1H-indazol-6-yl)acetamide] |  | 4.66 |  | > 200000 | 10 to 50 | 
NS(=O)(=O)c1cc(NC(=O)Cc2ccccc2Cl)cc2c1cnn2-c1ccc(F)cc1 [Compound 44, 2-(2-chlorophenyl)-N-(1-(4-fluorophenyl)-4-sulfamoyl-1H-indazol-6-yl)acetamide] | 36.8 | 5.08 |  |  |  | half-life ([3]; microsomes): 1.53 h; half-life [4]: 1.2 h
NS(=O)(=O)c1cc(NC(=O)Cc2ccccc2Cl)cc2cn(CC3CC3)nc12 [Compound 47, 2-(2-chlorophenyl)-N-(2-(cyclopropylmethyl)-7-sulfamoyl-2H-indazol-5-yl)acetamide] | 17 | 13.1 |  | > 200000 |  | 
NS(=O)(=O)c1cc(NC(=O)Cc2ccccc2Cl)cc2nc(-c3ccccc3)[nH]c12 [Compound 53, 2-(2-chlorophenyl)-N-(2-phenyl-7-sulfamoyl-1H-benzo[d]imidazol-5-yl)acetamide] |  | 3.79 | 0.753 |  | 200 to 5000 | half-life [4]: 0.154 h
NS(=O)(=O)c1cc(NC(=O)Cc2ccccc2Cl)cc2nn(Cc3ccc(F)cc3)cc12 [Compound 88, 2-(2-chlorophenyl)-N-(2-(4-fluorobenzyl)-4-sulfamoyl-2H-indazol-6-yl)acetamide] |  | 8.54 | 2.07 | > 200000 | ≤ 10 | half-life [4]: 2 h
Nc1ccc(Cn2cc3c(S(N)(=O)=O)cc(NC(=O)Cc4ccccc4Cl)cc3n2)cn1 [Compound 101, N-(2-((6-aminopyridin-3-yl)methyl)-4-sulfamoyl-2H-indazol-6-yl)-2-(2-chlorophenyl)acetamide] |  | 1.86 |  |  | 10 to 50 | 
Nc1ccc(Cn2ncc3c(S(N)(=O)=O)cc(NC(=O)Cc4ccccc4Cl)cc32)cn1 [Compound 101A, N-(1-((6-aminopyridin-3-yl)methyl)-4-sulfamoyl-1H-indazol-6-yl)-2-(2-chlorophenyl)acetamide] |  | 1.19 |  |  | 10 to 50 | 
NS(=O)(=O)c1cc(NC(=O)Cc2ccccc2Cl)cc2nn(CC3CCOC3)cc12 (stereo not drawn) [Compound 110, 2-(2-chlorophenyl)-N-(4-sulfamoyl-2-((tetrahydrofuran-3-yl)methyl)-2H-indazol-6-yl)acetamide] |  | 7.18 | 1.15 |  | 50 to 200 | 
NS(=O)(=O)c1cc(NC(=O)Cc2ccccc2Cl)cc2c1cnn2CC1CCOC1 (stereo not drawn) [Compound 110A, 2-(2-chlorophenyl)-N-(4-sulfamoyl-1-((tetrahydrofuran-3-yl)methyl)-1H-indazol-6-yl)acetamide] |  | 0.882 | 0.335 |  | 200 to 5000 | 
NS(=O)(=O)c1cc(NC(=O)Cc2ccccc2Cl)cc2nn(CC3CCCO3)cc12 (stereo not drawn) [Compound 120, 2-(2-chlorophenyl)-N-(4-sulfamoyl-2-((tetrahydrofuran-2-yl)methyl)-2H-indazol-6-yl)acetamide] |  | 1.06 | 0.226 |  | 50 to 200 | 
NS(=O)(=O)c1cc(NC(=O)Cc2ccccc2Cl)cc2c1cnn2CC1CCCO1 (stereo not drawn) [Compound 120A, 2-(2-chlorophenyl)-N-(4-sulfamoyl-1-((tetrahydrofuran-2-yl)methyl)-1H-indazol-6-yl)acetamide] |  | 0.371 | 0.137 |  | 50 to 200 | 
CCC(F)(F)n1cc2c(S(N)(=O)=O)cc(NC(=O)Cc3ccccc3Cl)cc2n1 [Compound 133, 2-(2-chlorophenyl)-N-(2-(1,1-difluoropropyl)-4-sulfamoyl-2H-indazol-6-yl)acetamide] |  | 25 | 2.26 | > 100000 | 10 to 50 | 
C=CC(F)(F)n1cc2c(S(N)(=O)=O)cc(NC(=O)Cc3ccccc3Cl)cc2n1 [Compound 134, 2-(2-chlorophenyl)-N-(2-(1,1-difluoroallyl)-4-sulfamoyl-2H-indazol-6-yl)acetamide] |  | 13.7 | 3.22 |  | 10 to 50 | 
NS(=O)(=O)c1cc(NC(=O)Cc2ccccc2Cl)cc2nn(CC3CCOCC3)cc12 [Compound 141, 2-(2-chlorophenyl)-N-(4-sulfamoyl-2-((tetrahydro-2H-pyran-4-yl)methyl)-2H-indazol-6-yl)acetamide] |  | 1.07 | 0.226 |  | 50 to 200 | 
COc1ccc2c(c1)[C@]13CCCC[C@@H]1[C@H](C2)N(C)CC3 [Dextromethorphan, dextromethorphan, reference compound] |  |  |  |  |  | Cough inhibition rate Vs vehicle (%) ([6]; 60 mg/kg): 33.95%; Cough latency [6, 7]: 73.43 s; Mean number of coughs [6, 7]: 18.57; Cough latency ([6]; 60 mg/kg, after administration): 154.29 s; Mean number of coughs ([6]; 60 mg/kg, after administration): 12.71; Cough inhibition rate Vs baseline (%) ([6]; 60 mg/kg, before vs after administration): 31.54%
